# In patent US7566812B2, “Transgenic mouse models of hepatitis C virus (HCV) and identification of HCV therapeutics” (priority 2004, dated 2009):
# Assays:
# HCV = assay: Treatment of a patient with HCV related complications; type: in vivo; conditions: repeated course of treatment
# Experimental: A patient in need of treatment of HCV related complications is identified by routine methods. The patient is administered an amount of SB203580, based on the particular patient and the severity of the HCV symptoms. Following a repeated course of treatment, if required, the patient's HCV related symptoms are reduced. In some applications, the reduction of viral lode or another indicator for HCV infection is measured. The next example describes more transgenic organisms that contain the constructs described herein.
# wild-type mice = assay: Survival after TNF-α/D-Gal challenge, wild-type mice; type: in vivo, mouse
# Experimental: (§1) This Example describes several of the approaches used to induce hepatic injury in the NS3/4A-Tg mice and the techniques used to analyze the data. All NS3/4A-Tg or wild-type (Wt) mice used in these experiments were male and/or females between 6-12 weeks old. All groups of mice contained five to ten mice. Comparisons were done in age matched animals, excluding an age dependent difference when comparing groups. For the carbon tetrachloride (CCl4) treatment, CCl4 was diluted in 100 μL olive oil and administered intraperitoneal (i.p.) as a single dose to NS3/4A-Tg and Wt mice. Each mouse was treated with 10 mg (0.5 g/kg) CCl4 (Sigma). Serum from individual mice was collected at various time intervals (12, 24, 48, and 72 hours) after CCl4-treatment by retro-orbital bleeding. Serum alanine aminotransferase (ALT) values were measured to evaluate the extent of liver injury. […] Serum ALT values were measured to evaluate the extent of liver injury. […] Serum ALT values were measured to evaluate the extent of liver injury. […] Serum ALT values were measured to evaluate the extent of liver injury. […] Serum ALT values were measured to evaluate the extent of liver injury.
# (§2) SB203580 (Calbiochem) was dissolved/diluted in sterile dH2O and administered to mice intra orally (i.o.). […] The following Example teaches how the above data were statistically analyzed.
# NS3/4A-Tg mice = assay: Survival after TNF-α/D-Gal challenge, NS3/4A transgenic mice; type: in vivo, mouse
# Experimental: as §1, §2
# [1] = tested on: NS3/4A-SP2/0 tumor cell line; assay: In vivo tumor growth assay in immunized Balb/c mice, NS3/4A-SP2/0 cells; conditions: 3 mg ribavirin with 100, 10 or 1 micrograms coNS3/4A, single immunization
# Experimental: To study whether the constructs described above were capable of eliciting a cell-mediated response against NS3, an in vivo tumor growth assay was performed. To this end, an SP2/0 tumor cell line (SP2/0-Ag14 myeloma cell line (H-2^d)) stably transfected with the NS3/4A gene was made. The SP2/0 cells were maintained in DMEM medium supplemented with 10% fetal calf serum (FCS; Sigma Chemicals, St. Louis, Mo.), 2 mM L-Glutamine, 10 mM HEPES, 100 U/ml Penicillin and 100 μg/ml Streptomycin, 1 mM non-essential amino acids, 50 μM β-mercaptoethanol, 1 mM sodium pyruvate (GIBCO-BRL, Gaithesburgh, Md.). The pcDNA3.1 plasmid containing the NS3/4A gene was linearized by BglII digestion. […]
# Transfected cells were cloned by limiting dilution and selected by addition of 800 μg geneticin (G418)/ml complete DMEM medium after 14 days. […] Bound murine serum antibodies were detected by an alkaline phosphatase conjugated goat anti-mouse IgG (Sigma cell products, Saint Louis, Mo. USA) followed by addition of the substrate pNPP (1 tablet/5 ml of 1 M Diethanolamin buffer with 0.5 mM MgCl2). […] Absorbance was then read at 405 nm.
# The in vivo growth kinetics of the SP2/0 and the NS3/4A-SP2/0 cell lines were then evaluated in Balb/c mice. […] Each day the size of the tumor was determined through the skin. […]
# [2] = tested on: NS3/4A-EL-4 tumor cell line; assay: Tumor challenge model with NS3/4A-EL-4 tumor cells; type: in vivo; conditions: C57BL/6 mice
# Text: To define the in vivo functional anti-tumor effector cell population, CD4+ or CD8+ T cells were depleted in mice immunized with the coNS3/4A plasmid one week prior to, and during, challenge with the NS3/4A-EL-4 tumor cell line. […] Thus, NS3/4A-specific CD8+ CTLs are the major protective cell at the effector stage in the in vivo model for inhibition of tumor growth.
# The tumor challenge model was used to evaluate how effective the different immunogens were in priming a protective immunity against growth of NS3/4A-EL4 tumor cells in vivo. To ensure that the effectiveness of the priming event was studied, all mice were immunized only once. Vectors containing NS3/4A were able to rapidly prime protective immune responses as compared to the immunized with the empty pVAX plasmid (p<0.05, ANOVA; FIG. 10). […] The next example examines the prerequisites for priming of CD8+ CTL.
# To further clarify the prerequisites for priming of CD8+ CTL additional experiments were performed. First, C57BL/6 mice immunized with the NS3-derived CTL peptide were not protected against growth of NS3/4A-EL-4 tumors. […] To further characterize the priming event, groups of B cell (μMT; Kitamura D., et al., Nature, 350: 423-426 (1991)) or CD4 deficient C57BL/6 mice (Rahemtulla A et al., Nature, 353:180-184 (1991)) were immunized once with the coNS3/4A gene using gene gun, and challenged two weeks later (FIG. 10). […]
# [3] = 0.5 mg (25 mg/kg) i.o. thirty minutes prior to rm TNF-α/D-Gal
compound,measurement,setting,value
C[S+]([O-])c1ccc(-c2nc(-c3ccncc3)c(-c3ccc(F)cc3)[nH]2)cc1 (stereo not shown) [SB203580],patient's HCV related symptoms,HCV,reduced
same,impact on the survival rate of wild-type mice provided TNF-alpha,wild-type mice; [3],no significant
same,TNF-alpha sensitivity phenotype (survival) of NS3/4A transgenic mice,NS3/4A-Tg mice; [3],reverted to TNF-alpha sensitive phenotype
"NC(=O)c1ncn([C@@H]2O[C@H](CO)[C@@H](O)[C@H]2O)n1 [ribavirin, 1-β-D-ribofuranosyl-1,2,4-triazole-3-carboxamide]",effect of the adjuvant on the effectiveness of the initial coNS3/4A immunization (tumor size),[1],dramatically increased the effectiveness
"GAVQNEVTL (Artificial Peptide, NS3/4A H-2D Binding Peptide) [NS3-derived CTL peptide]",protection against growth of NS3/4A-EL-4 tumors,[2],not protected
TNF-α,mice killed,"wild-type mice; 5 μg/kg, non-transgenic mice, within 24 hours",80%
same,survival of the lethal TNF-α dose,"NS3/4A-Tg mice; 5 μg/kg, NS3/4A-Tg mice",all NS3/4A-Tg mice survived
